Source: patent US5976523A, “Method for healing compromised tissues using pyrimidine derivatives” (Mitsui Pharmaceuticals, Inc., priority 1995, dated 1999)
Counter-ions that a name gives are not always drawn.

How the values were obtained:
[1] = system: CAMs (chorioallantoic membranes); assay: Angiogenesis on chorioallantoic membranes (CAM); format: in vivo, chick; settings: for number of new blood vessels (M±SE): day 3
Procedure: For a bFGF, various assay systems assessing the angiogenesis activity of the bFGF as an index are usable. The shells of chick embryos are fenestrated centrally corresponding to the air spaces thereof, whereby the chorioallantoic membranes (CAMS) are exposed. Solutions of the bFGF and a test medicament at various concentrations were applied onto the respective CAMs. Incubation was continued. Several days later, the degrees of angiogenesis were investigated under a microscope. This method is preferably employed. […] The test medicament is therefore found to be useful for the reduction of a time required for the construction of a skin-equivalent tissue. […] Also with respect to a VEGF, its angiogenesis activity can be assayed in a similar system.
The shells of eggs on the 10th day after fertilization were fenestrated centrally corresponding to air spaces thereof, whereby CAMs (chorioallantoic membranes) were exposed. A nylon film in the form of a square of 3 mm in side was placed over the CAM, and onto the nylon film, a solution of bFGF as a growth and/or differentiation factor or the pyrimidine compound according to the present invention was dropped in an amount of 8 ul. Incubation was continued at 38° C. On the 72nd hour, the eggs were moved to a cool place controlled at 4° C. After the eggs were left over for 2 to 3 hours there, the degree of angiogenesis in each egg was investigated under a microscope. The angiogenesis was determined based on the number of radial blood vessels equal to or larger than 0.1 mm in diameter. Onto the nylon disk placed over the CAMS, 1, 10, and 100 ng/ml solutions of recombinant human bFGF (product of Genzyme Corporation) in physiological saline and 0.01 to 1 mM solutions of the individual pyrimidine compound in physiological saline were applied singly or in combination.

[2] = system: primary cultured gastric mucosal cells; assay: Wound repair model with primary cultured gastric mucosal cells; format: cell-based, rabbit
Procedure: Primary cultured gastric mucosal cells were prepared by mechanically peeling and mincing the gastric mucosa of a rabbit having a body weight of 2 kg and then digesting the minced gastric mucosa with 0.07% collagenase. The primary cultured gastric mucosal cells were cultured at a cell concentration of 3.3×10^5 cells/ml in F-12 culture medium containing 10% fetal calf serum added therein. For this cultivation, a culture dish (60 mm in diameter) coated with collagen type I was used. […] Using an anti-BrdU antibody, the cells in the S phase were stained to identify proliferated cells.
Their effects on the process of restoration were measured under the above-described parameters. […] In each of the control group and the medicament-added groups, the area of the wounded region was measured at the 0th hour, 12th hour, 24th hour, 36th hour and 48th hour. The measurement results will be given in this order.
The control group and the groups added with the medicament at the respective concentrations were each subjected to the experiment with n=5. The results will each be presented as a (mean±S. D.) mm2. A test of significance was conducted relative to the control group. * stands for p<0.05, ** for p<0.01, *** for p<0.001. A further test of significance was conducted relative to a group added with 10 ng/ml of EGF. + stands for p<0.05, and ++ for <0.01.

CN1Cc2nc(N3CCNCC3)ncc2C1=O [Compound B, 2-piperazino-6-methyl-5-oxo-5,6-dihydro(7H)pyrro[3,4-d]pyrimidine maleate]
number of new vessels (M±SE) ([1]; bFGF (concentration not stated) + 0.01 mM compound): 8.1±1.1
number of new vessels (M±SE) ([1]; bFGF (concentration not stated) + 0.1 mM compound): 8.5±0.8
number of new vessels (M±SE) ([1]; bFGF (concentration not stated) + 1 mM compound): 9.3±0.5
angiogenesis ability of bFGF ([1]; bFGF + compound): synergistically enhanced
number of new blood vessels (M±SE) ([1]; compound alone 0.01 mM): 3.5±0.9
number of new blood vessels (M±SE) ([1]; compound alone 0.1 mM): 3.4±0.5
number of new blood vessels (M±SE) ([1]; compound alone 1 mM): 4.4±0.7
area of the wounded region (mean±S.D.) ([2]; EGF + 0.01 mM compound, 0th hour): 2.06±0.04 mm2
area of the wounded region (mean±S.D.) ([2]; EGF + 0.01 mM compound, 12th hour): 0.92±0.05 mm2
area of the wounded region (mean±S.D.) ([2]; EGF + 0.01 mM compound, 24th hour): 0.38±0.05 mm2
area of the wounded region (mean±S.D.) ([2]; EGF + 0.01 mM compound, 36th hour): 0.07±0.04 mm2
area of the wounded region (mean±S.D.) ([2]; EGF + 0.01 mM compound, 48th hour): 0 mm2
area of the wounded region (mean±S.D.) ([2]; EGF + 0.1 mM compound, 0th hour): 2.06±0.04 mm2
area of the wounded region (mean±S.D.) ([2]; EGF + 0.1 mM compound, 12th hour): 0.83±0.05 mm2
area of the wounded region (mean±S.D.) ([2]; EGF + 0.1 mM compound, 24th hour): 0.29±0.07 mm2
area of the wounded region (mean±S.D.) ([2]; EGF + 0.1 mM compound, 36th hour): 0 mm2
area of the wounded region (mean±S.D.) ([2]; EGF + 0.1 mM compound, 48th hour): 0 mm2
effect on EGF-induced acceleration of cell restoration ([2]; compound 0.01-0.1 mM with EGF): further promoted the EGF-induced acceleration of cell restoration in a concentration-dependent fashion
repairing effects ([2]; compound alone 0.01-0.1 mM, absence of EGF): did not show repairing effects in the absence of EGF
